# Assay results from patent publication US20220395472A1 (Dermavant Sciences GmbH, priority 2021, published 2022).
# Test system: adults with plaque psoriasis
# Experiment: Long-term open-label extension study (PSOARING 3): Physician Global Assessment (PGA), treatment episodes, treatment success, remittive effect
# Format: in vivo, human
# Procedure: This extension study consisted of up to 40 weeks of treatment and a 4 week, safety follow up period.
# At the completion of the Week 12 visit of the DB, pivotal Phase 3 study, eligibility of the subjects opting to enroll in this extension study was confirmed. Study visits during the treatment period for all subjects occurred every 4 weeks (±3 days). A phone call was performed at Week 2 (Day 15). Unscheduled visits may have occurred, as needed. Subjects who withdrew from this study before Week 40 returned to the study center for an Early Termination visit. The total duration of this extension study participation was 44 weeks. Subjects in this study were treated as follows based on their PGA score from the Week 12 visit in the DB, pivotal Phase 3 study (Study DMVT 505 3001 or Study DMVT 505 3002).
# The PGA was used to assess the primary efficacy endpoint in this study. The PGA is a clinical tool for assessing the current state/severity of a subject's psoriasis at a given time point. It is a static, 5 point, morphological assessment of overall disease severity, as determined by the Investigator, using the clinical characteristics of erythema, scaling, and plaque thickness/elevation as guidelines; higher PGA scores represent more severe disease (0=clear, 1=almost clear, 2=mild, 3=moderate, and 4=severe). The BSA affected was not considered in scoring of the PGA. Variations of the PGA are frequently used in clinical studies because it is a simple assessment, similar to those used in clinical practice. The PGA was performed first, prior to the % BSA, PASI, and LTS assessments.
# Time to event parameters, such as the time from treatment success to subsequent worsening (PGA≥2) or duration of treatment episode, were summarized by the Kaplan Meier product limit method using OC.
# [1] = Baseline PGA = 0, Tapinarof (Pivotal) group
# [2] = Baseline PGA = 0, Vehicle (Pivotal) group
structure (smiles),measurement,setting,value
"CC(C)c1c(O)cc(/C=C/c2ccccc2)cc1O [Tapinarof, 3,5-Dihydroxy-4-isopropyl-trans-stilbene]","Average Duration of Episodes, Mean (SD)","Baseline PGA = 0, Overall",91.4 (66.93) days
same,"Average Duration of Episodes, Median","Baseline PGA = 0, Overall",63.0 days
same,"Average Duration of Treatment Success, Mean (SD)","Baseline PGA = 0, Overall",124.2 (87.66) days
same,"Average Duration of Treatment Success, Median","Baseline PGA = 0, Overall",98.0 days
same,"Duration of 1st Episode, Mean (SD)","Baseline PGA = 0, Overall",92.9 (67.74) days
same,"Duration of 1st Episode, Median","Baseline PGA = 0, Overall",65.0 days
same,"Duration of 1st Success, Mean (SD)","Baseline PGA = 0, Overall",125.1 (91.87) days
same,"Duration of 1st Success, Median","Baseline PGA = 0, Overall",112.0 days
same,"Duration of 2nd Episode, Mean (SD)","Baseline PGA = 0, Overall",44.1 (25.97) days
same,"Duration of 2nd Episode, Median","Baseline PGA = 0, Overall",42.0 days
same,"Duration of 2nd Success, Mean (SD)","Baseline PGA = 0, Overall",87.6 (67.05) days
same,"Duration of 2nd Success, Median","Baseline PGA = 0, Overall",71.0 days
same,"Duration of 3rd Episode, Mean (SD)","Baseline PGA = 0, Overall",61.0 (NE) days
same,"Duration of 3rd Episode, Median","Baseline PGA = 0, Overall",61.0 days
same,"Duration of 3rd Success, Mean (SD)","Baseline PGA = 0, Overall",33.0 (29.76) days
same,"Duration of 3rd Success, Median","Baseline PGA = 0, Overall",28.0 days
same,"Duration of Last Episode, Mean (SD)","Baseline PGA = 0, Overall",89.9 (68.95) days
same,"Duration of Last Episode, Median","Baseline PGA = 0, Overall",63.0 days
same,"Duration of Last Success, Mean (SD)","Baseline PGA = 0, Overall",121.6 (98.44) days
same,"Duration of Last Success, Median","Baseline PGA = 0, Overall",112.0 days
same,"Total Duration of Treatment Episodes, Mean (SD)","Baseline PGA = 0, Overall",109.2 (61.94) days
same,"Total Duration of Treatment Episodes, Median","Baseline PGA = 0, Overall",94.0 days
same,"Total Duration of Treatment Success, Mean (SD)","Baseline PGA = 0, Overall",167.9 (84.48) days
same,"Total Duration of Treatment Success, Median","Baseline PGA = 0, Overall",170.0 days
same,"Average Duration of Episodes, Mean (SD)",[1],90.2 (65.67) days
same,"Average Duration of Episodes, Median",[1],63.0 days
same,"Average Duration of Treatment Success, Mean (SD)",[1],119.7 (82.74) days
same,"Average Duration of Treatment Success, Median",[1],98.0 days
same,"Duration of 1st Episode, Mean (SD)",[1],91.7 (66.66) days
same,"Duration of 1st Episode, Median",[1],65.0 days
same,"Duration of 1st Success, Mean (SD)",[1],120.3 (87.83) days
same,"Duration of 1st Success, Median",[1],112.0 days
same,"Duration of 2nd Episode, Mean (SD)",[1],44.9 (26.43) days
same,"Duration of 2nd Episode, Median",[1],43.0 days
same,"Duration of 2nd Success, Mean (SD)",[1],89.1 (67.03) days
same,"Duration of 2nd Success, Median",[1],71.0 days
same,"Duration of 3rd Episode, Mean (SD)",[1],61.0 (NE) days
same,"Duration of 3rd Episode, Median",[1],61.0 days
same,"Duration of 3rd Success, Mean (SD)",[1],36.2 (29.31) days
same,"Duration of 3rd Success, Median",[1],28.5 days
same,"Duration of Last Episode, Mean (SD)",[1],88.8 (67.68) days
same,"Duration of Last Episode, Median",[1],63.0 days
same,"Duration of Last Success, Mean (SD)",[1],118.0 (93.58) days
same,"Duration of Last Success, Median",[1],112.0 days
same,"Total Duration of Treatment Episodes, Median",[1],94.0 days
same,"Total Duration of Treatment Success, Mean (SD)",[1],164.3 (82.24) days
same,"Total Duration of Treatment Success, Median",[1],168.0 days
same,"Average Duration of Episodes, Mean (SD)",[2],122.8 (124.80) days
same,"Average Duration of Episodes, Median",[2],122.8 days
same,"Average Duration of Treatment Success, Mean (SD)",[2],191.0 (136.91) days
same,"Average Duration of Treatment Success, Median",[2],280.0 days
same,"Duration of 1st Episode, Mean (SD)",[2],126.0 (120.21) days
same,"Duration of 1st Episode, Median",[2],126.0 days
same,"Duration of 1st Success, Mean (SD)",[2],195.2 (130.61) days
same,"Duration of 1st Success, Median",[2],280.0 days
same,"Duration of 2nd Episode, Mean (SD)",[2],28.0 (NE) days
same,"Duration of 2nd Episode, Median",[2],28.0 days
same,"Duration of 2nd Success, Mean (SD)",[2],63.5 (88.39) days
same,"Duration of 2nd Success, Median",[2],63.5 days
same,"Duration of 3rd Success, Mean (SD)",[2],1.0 (NE) days
same,"Duration of 3rd Success, Median",[2],1.0 days
same,"Duration of Last Episode, Mean (SD)",[2],119.5 (129.40) days
same,"Duration of Last Episode, Median",[2],119.5 days
same,"Duration of Last Success, Mean (SD)",[2],174.4 (158.72) days
same,"Duration of Last Success, Median",[2],280.0 days
same,"Total Duration of Treatment Episodes, Mean (SD)",[2],140.0 (100.41) days
same,"Total Duration of Treatment Episodes, Median",[2],140.0 days
same,"Total Duration of Treatment Success, Mean (SD)",[2],220.8 (109.21) days
same,"Total Duration of Treatment Success, Median",[2],280.0 days
same,"Average Duration of Episodes, Mean (SD)","Baseline PGA = 1, Overall",140.1 (95.01) days
same,"Average Duration of Episodes, Median","Baseline PGA = 1, Overall",112.0 days
same,"Average Duration of Treatment Success, Median","Baseline PGA = 1, Overall",98.0 days
same,"Duration of 1st Episode, Mean (SD)","Baseline PGA = 1, Overall",133.5 (100.06) days
same,"Duration of 1st Episode, Median","Baseline PGA = 1, Overall",87.0 days
same,"Duration of 1st Success, Mean (SD)","Baseline PGA = 1, Overall",107.2 (76.62) days
same,"Duration of 1st Success, Median","Baseline PGA = 1, Overall",90.0 days
same,"Duration of 2nd Episode, Mean (SD)","Baseline PGA = 1, Overall",98.4 (61.51) days
same,"Duration of 2nd Episode, Median","Baseline PGA = 1, Overall",85.0 days
same,"Duration of 2nd Success, Mean (SD)","Baseline PGA = 1, Overall",75.4 (59.40) days
same,"Duration of 2nd Success, Median","Baseline PGA = 1, Overall",56.0 days
same,"Duration of 3rd Episode, Mean (SD)","Baseline PGA = 1, Overall",54.9 (56.83) days
same,"Duration of 3rd Episode, Median","Baseline PGA = 1, Overall",28.0 days
